Source: patent publication US20260224541A1, “PHARMACEUTICAL FORMULATION, PREPARATION METHOD THEREFOR, AND TABLET COMPOSITION” (JEIL PHARMACEUTICAL CO., LTD., priority 2023, published 2026)

Assay: oral administration: blood concentration of the citrate salt vs free base Compound 1
Format: in vivo
Settings: administered orally

AUC compared to the free base Compound 1: at least 5 fold | Cmax compared to the free base Compound 1: at least 11 fold | time to reach peak blood concentrations compared to the free base Compound 1: faster
SMILES: Cc1cccc(C)c1CNc1cc(C(=O)N2CCC2)cn2c(C)c(C)nc12.O=C(O)CC(O)(CC(=O)O)C(=O)O [citrate salt of Compound 1, azetidin-1-yl{8-[(2,6-dimethylbenzyl)amino]-2,3-dimethylimidazo[1,2-a]pyridin-6-yl}methanone citrate salt]
